Oligonucleotides are written 5' to 3', each unit as a sugar letter and its base; * is a phosphorothioate linkage, no mark a phosphodiester; rarer units and linkages stand in square brackets, end groups in braces. Plain capitals give the bases only. d = 2'-deoxy (DNA); r = 2'-OH (RNA)
Experiment: reporter assay of Huesken 2005
Details: siRNA
Also: test concentration or dose not given here.

| Substance | normalised inhibition (eCFP-eYFP dual reporter) |
| --- | --- |
| sense rCrCrArGrArGrUrGrGrArArArCrUrCrArCrArCdTdT / antisense rGrUrGrUrGrArGrUrUrUrCrCrArCrUrCrUrGrGdTdG | 95.3% |
| sense rCrCrArGrGrGrGrArCrArGrGrCrArGrCrArGrGdTdT / antisense rCrCrUrGrCrUrGrCrCrUrGrUrCrCrCrCrUrGrGdGdC | 45.6% |
| sense rCrCrCrGrGrGrGrCrUrGrArGrArArArGrUrUrCdTdT / antisense rGrArArCrUrUrUrCrUrCrArGrCrCrCrCrGrGrGdAdT | 85.4% |
| sense rCrCrUrGrUrCrArGrGrGrGrUrCrGrGrArGrUrGdTdT / antisense rCrArCrUrCrCrGrArCrCrCrCrUrGrArCrArGrGdCdA | 72.5% |
| sense rCrCrUrUrGrGrArArArCrGrArArCrCrArArGrCdTdT / antisense rGrCrUrUrGrGrUrUrCrGrUrUrUrCrCrArArGrGdGdA | 85.8% |
| sense rCrGrGrGrGrCrUrGrArGrArArArGrUrUrCrGrUdTdT / antisense rArCrGrArArCrUrUrUrCrUrCrArGrCrCrCrCrGdGdG | 95.2% |
| sense rCrGrUrUrUrCrArUrUrGrUrUrCrCrUrGrUrGrAdTdT / antisense rUrCrArCrArGrGrArArCrArArUrGrArArArCrGdAdC | 54.2% |
| sense rCrUrCrUrCrUrGrCrCrArCrArUrGrGrUrGrUrGdTdT / antisense rCrArCrArCrCrArUrGrUrGrGrCrArGrArGrArGdAdC | 46.7% |
| sense rCrUrCrUrGrUrCrUrCrUrCrUrGrCrCrArCrArUdTdT / antisense rArUrGrUrGrGrCrArGrArGrArGrArCrArGrArGdCdC | 62.3% |
| sense rCrUrUrArGrUrCrCrCrCrUrCrUrUrUrCrUrGrGdTdT / antisense rCrCrArGrArArArGrArGrGrGrGrArCrUrArArGdGdG | 87.5% |
| sense rCrUrUrCrUrGrArGrCrArArUrArUrCrCrCrCrAdTdT / antisense rUrGrGrGrGrArUrArUrUrGrCrUrCrArGrArArGdTdT | 93% |
| sense rCrUrUrGrArGrGrGrArGrArGrUrUrGrUrArCrCdTdT / antisense rGrGrUrArCrArArCrUrCrUrCrCrCrUrCrArArGdCdC | 63.4% |
| sense rCrUrUrGrCrCrUrCrUrGrArGrGrArArUrGrArGdTdT / antisense rCrUrCrArUrUrCrCrUrCrArGrArGrGrCrArArGdAdA | 59.8% |
| sense rGrArGrArGrArGrCrArArCrArGrGrGrUrArUrGdTdT / antisense rCrArUrArCrCrCrUrGrUrUrGrCrUrCrUrCrUrCdCdC | 85.5% |
| sense rGrArGrGrArCrUrCrCrUrUrCrCrUrUrCrUrCrUdTdT / antisense rArGrArGrArArGrGrArArGrGrArGrUrCrCrUrCdTdG | 81.2% |
| sense rGrArGrUrCrArArArGrGrUrCrArCrCrArGrArGdTdT / antisense rCrUrCrUrGrGrUrGrArCrCrUrUrUrGrArCrUrCdCdC | 85.9% |
| sense rGrArUrUrCrCrArCrCrArGrUrUrUrArGrArArGdTdT / antisense rCrUrUrCrUrArArArCrUrGrGrUrGrGrArArUrCdTdG | 84% |
| sense rGrArUrUrUrArGrGrCrUrUrGrArGrGrGrArGrAdTdT / antisense rUrCrUrCrCrCrUrCrArArGrCrCrUrArArArUrCdCdA | 90.8% |
| sense rGrCrArArCrArGrGrGrUrArUrGrCrArCrArCrCdTdT / antisense rGrGrUrGrUrGrCrArUrArCrCrCrUrGrUrUrGrCdTdC | 72.5% |
| sense rGrCrCrCrUrCrCrUrGrUrGrArCrCrUrCrCrArUdTdT / antisense rArUrGrGrArGrGrUrCrArCrArGrGrArGrGrGrCdAdC | 89% |

From the OligoGym collection
